Reference: patent US11180455B2, “Compounds for the treatment of pain” (priority 2018, dated 2021)
Like-named read-outs stand apart in the source and are kept apart here.

Legend:
Male Sprague-Dawley rats [1] = type: in vivo; conditions: rat
Male Sprague-Dawley rats [2] = conditions: maximum pCO2 within 2 hours of administration, rat, subcutaneous
human μ opioid receptor = human μ opioid receptor (Homo sapiens (Human), UniProt P35372); assay: Alternate functional activity ([35S]GTPγS binding, SPA) assay; type: biochemical; conditions: alternate [35S]GTPγS binding assay (SPA beads), CHO cell membranes expressing human μ opioid receptor
Method: The [^35S]GTPγS assay measures the functional properties of a compound by quantifying the level of G-protein activation following agonist binding in studies using stably transfected cells, and is considered to be a measure of the efficacy of a compound. Membranes from CHO (Chinese Hamster Ovary) cells that stably expressed one type of the cloned human opioid receptor human were used in the experiments. The assay buffer consisted of 50 mM Tris-HCl, pH 7.4, 3 mM MgCl2, 0.2 mM EGTA, 5 μM GDP, and 100 mM NaCl. CHO cell membranes stably expressing the human p opioid receptor were pre-incubated with scintillation proximity assay beads from PerkinElmer® (WGA PVT SPA) for 30 minutes, at 8 µg membrane and 350 µg beads in a volume of 0.1 mL per reaction. In a final volume of 0.2 mL, 11 different concentrations of each test compound were incubated with the membrane-SPA bead mixture and a final concentration of 0.020 nM [35S]GTPγS for 1.5 hours with gentle shaking. Reactions were then incubated for 5 hours. Data are the mean EC50 values±S.E.M. EC50 values (nM) for compounds 12, 16, 19, 20, 149, 151, 152, 157, 160, 161, 164-169, 172, 173, 180-197, and 199-207 are shown in Table 1.

CO[C@@]12CC[C@@]3(C[C@@H]1[C@](C)(O)C(C)(C)C)[C@H]1Cc4ccc(O)c5c4[C@@]3(CCN1CC1CC1)[C@H]2O5 [Buprenorphine, buprenorphine, reference compound]
MEMO SC CFA (Male Sprague-Dawley rats [1]; in vivo): 0.1 mg/kg

COC1(c2cccc(C(N)=O)c2)C2CCCC1CN(C1CC3(COC3)C1)C2.O=C(O)C[C@H](O)C(=O)O [Compound 133, 3-((1R,5S,9r)-9-methoxy-3-(2-oxaspiro[3.3]heptan-6-yl)-3-azabicyclo[3.3.1]nonan-9-yl)benzamide (S)-2-hydroxysuccinate]
<60 mmHg @ 10X CFA MEMD (Male Sprague-Dawley rats [2]): + (resulted in a maximum pCO2 value of less than 60 mmHg within 2 hours of administration)

CO[C@@]1(c2ccnc(C(N)=O)c2)[C@@H]2CCC[C@H]1CN(Cc1ncc(C)[nH]1)C2.Cl [Compound 153, 4-((1R,5S,9r)-9-methoxy-3-((5-methyl-1H-imidazol-2-yl)methyl)-3-azabicyclo[3.3.1]nonan-9-yl)picolinamide Hydrochloride]
MEMO SC CFA (Male Sprague-Dawley rats [1]; minimum dose at which maximal reversal (MEMD) of weight bearing was achieved, subcutaneous administration): 1 mg/kg

CCOC1(c2cccc(C(N)=O)c2)C2CCCC1CNC2 [Compound 160, 3-((1R,5S,9r)-9-ethoxy-3-azabicyclo[3.3.1]nonan-9-yl)benzamide]
<60 mmHg @ 10X CFA MEMD (Male Sprague-Dawley rats [2]): + (resulted in a maximum pCO2 value of less than 60 mmHg within 2 hours of administration)
<60 mmHg @ 100X CFA MEMD (Male Sprague-Dawley rats [2]; 100X CFA MEMD dose): + (resulted in a maximum pCO2 value of less than 60 mmHg within 2 hours of administration)

CCOC1(c2cc(C(N)=O)ccc2F)C2CCCC1CN(C)C2 (stereo not drawn) [Compound 194]
EC50 (human μ opioid receptor): 10 to 75 nM
